Measured values taken from ChEMBL document CHEMBL1201862, “PubChem BioAssay data set” (2004).
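All cell lines were grown in 96-well plates and treated with compound for 48 hours. GI50 is the concentration that inhibits growth by half.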 The source made the active and inactive calls. Cut-off read from the data, not from the text of the source: active = GI50 up to about 1.1 µM and inactive = higher.

How the values were obtained:
Assay in all cases: NCI anticancer screen, dose series, 48 h
UACC-257 = test system: UACC-257
SNB-19 = test system: SNB-19
SN12C = test system: SN12C
T47D = test system: T47D
SF-539 = test system: SF-539
SNB-75 = test system: SNB-75
HCT-15 = test system: HCT-15
786-0 = test system: 786-0
RPMI-8226 = test system: RPMI-8226
OVCAR-8 = test system: OVCAR-8
SK-MEL-2 = test system: SK-MEL-2
Malme-3M = test system: Malme-3M
KM12 = test system: KM12
DU-145 = test system: DU-145
MCF7 = test system: MCF7
RXF 393 = test system: RXF 393
A498 = test system: A498
HT-29 = test system: HT-29
OVCAR-5 = test system: OVCAR-5
TK-10 = test system: TK-10
CAKI-1 = test system: CAKI-1
HCT-116 = test system: HCT-116
HOP-92 = test system: HOP-92
SK-MEL-28 = test system: SK-MEL-28
MDA-MB-231 = test system: MDA-MB-231
MOLT-4 = test system: MOLT-4
COLO 205 = test system: COLO 205
BT-549 = test system: BT-549
M14 = test system: M14
ACHN = test system: ACHN
HL-60 = test system: HL-60
NCI/ADR-RES = test system: NCI/ADR-RES
SF-295 = test system: SF-295
NCI-H23 = test system: NCI-H23
PC-3 = test system: PC-3
UACC-62 = test system: UACC-62
OVCAR-3 = test system: OVCAR-3
UO-31 = test system: UO-31
SK-MEL-5 = test system: SK-MEL-5
NCI-H226 = test system: NCI-H226
CCRF-CEM = test system: CCRF-CEM
K562 = test system: K562
MDA-N = test system: MDA-N
SW-620 = test system: SW-620
IGROV-1 = test system: IGROV-1
U-251 = test system: U-251
A549 = test system: A549
MDA-MB-435 = test system: MDA-MB-435
NCI-H460 = test system: NCI-H460
OVCAR-4 = test system: OVCAR-4
HCC 2998 = test system: HCC 2998
NCI-H522 = test system: NCI-H522
SF-268 = test system: SF-268
Hs-578T = test system: Hs-578T
SK-OV-3 = test system: SK-OV-3
HOP-62 = test system: HOP-62
EKVX = test system: EKVX
LOX IMVI = test system: LOX IMVI
SR = test system: SR

## N=C(N)c1ccc2oc3ccc(C(=N)N)cc3c(=O)c2c1
UACC-257
  GI50: > 100 µM (inactive)
SNB-19
  GI50: > 100 µM (inactive)
SN12C
  GI50: > 100 µM (inactive)
T47D
  GI50: > 100 µM (inactive)
SF-539
  GI50: > 100 µM (inactive)
SNB-75
  GI50: > 100 µM (inactive)
HCT-15
  GI50: > 100 µM
786-0
  GI50: > 100 µM (inactive)
RPMI-8226
  GI50: > 100 µM (inactive)
OVCAR-8
  GI50: > 100 µM (inactive)
SK-MEL-2
  GI50: > 100 µM (inactive)
Malme-3M
  GI50: 98.2 µM (inactive)
KM12
  GI50: > 100 µM (inactive)
DU-145
  GI50: > 100 µM (inactive)
MCF7
  GI50: 60.4 µM (inactive)
RXF 393
  GI50: > 100 µM (inactive)
A498
  GI50: > 100 µM (inactive)
HT-29
  GI50: > 100 µM (inactive)
OVCAR-5
  GI50: > 100 µM (inactive)
TK-10
  GI50: > 100 µM (inactive)
CAKI-1
  GI50: > 100 µM (inactive)
HCT-116
  GI50: > 100 µM (inactive)
HOP-92
  GI50: > 100 µM (inactive)
SK-MEL-28
  GI50: > 100 µM (inactive)
MDA-MB-231
  GI50: > 100 µM (inactive)
MOLT-4
  GI50: > 100 µM (inactive)
COLO 205
  GI50: > 100 µM (inactive)
BT-549
  GI50: > 100 µM (inactive)
M14
  GI50: > 100 µM (inactive)
ACHN
  GI50: > 100 µM (inactive)
HL-60
  GI50: > 100 µM (inactive)
NCI/ADR-RES
  GI50: > 100 µM (inactive)
SF-295
  GI50: > 100 µM (inactive)
NCI-H23
  GI50: > 100 µM (inactive)
PC-3
  GI50: > 100 µM (inactive)
UACC-62
  GI50: > 100 µM (inactive)
OVCAR-3
  GI50: > 100 µM (inactive)
UO-31
  GI50: > 100 µM (inactive)
SK-MEL-5
  GI50: > 100 µM (inactive)
NCI-H226
  GI50: > 100 µM (inactive)
CCRF-CEM
  GI50: > 100 µM (inactive)
K562
  GI50: > 100 µM (inactive)
MDA-N
  GI50: > 100 µM (inactive)
SW-620
  GI50: > 100 µM (inactive)
IGROV-1
  GI50: > 100 µM (inactive)
U-251
  GI50: > 100 µM (inactive)
A549
  GI50: > 100 µM (inactive)
MDA-MB-435
  GI50: > 100 µM (inactive)
NCI-H460
  GI50: > 100 µM (inactive)
OVCAR-4
  GI50: > 100 µM (inactive)
HCC 2998
  GI50: > 100 µM (inactive)
NCI-H522
  GI50: > 100 µM (inactive)
SF-268
  GI50: > 100 µM (inactive)

## COc1cc(O)c2c(=O)c(OC)c(-c3ccc(OC)c(OC)c3)oc2c1.[Zn+2]
SN12C
  GI50: 61.2 µM (inactive)
SF-539
  GI50: 20.8 µM (inactive)
SNB-75
  GI50: 1.75 µM (inactive)
786-0
  GI50: 10.4 µM (inactive)
RPMI-8226
  GI50: 57.9 µM (inactive)
RXF 393
  GI50: 5.81 µM (inactive)
TK-10
  GI50: 66.1 µM (inactive)
CAKI-1
  GI50: 11.2 µM (inactive)
Hs-578T
  GI50: 2.67 µM (inactive)
SK-OV-3
  GI50: 5.12 µM (inactive)
BT-549
  GI50: 17.8 µM (inactive)
HL-60
  GI50: > 100 µM (inactive)
NCI-H226
  GI50: 54.8 µM (inactive)
MDA-N
  GI50: > 100 µM (inactive)
A549
  GI50: 53.2 µM (inactive)
NCI-H460
  GI50: 17.1 µM (inactive)
NCI-H522
  GI50: 4.38 µM (inactive)

## C=C[C@@]1(C)CC(=O)[C@]2(O)[C@@]3(C)[C@@H](OC(C)=O)CCC(C)(C)[C@@H]3[C@H](O)[C@H](OC(C)=O)[C@@]2(C)O1
UACC-257
  GI50: > 100 µM (inactive)
SNB-19
  GI50: > 100 µM (inactive)
SN12C
  GI50: > 100 µM (inactive)
T47D
  GI50: > 100 µM (inactive)
SF-539
  GI50: > 100 µM (inactive)
HOP-62
  GI50: > 100 µM (inactive)
EKVX
  GI50: > 100 µM (inactive)
SNB-75
  GI50: 27.6 µM (inactive)
HCT-15
  GI50: > 100 µM
786-0
  GI50: 83.6 µM (inactive)
OVCAR-8
  GI50: > 100 µM (inactive)
SK-MEL-2
  GI50: > 100 µM (inactive)
KM12
  GI50: 13.4 µM (inactive)
DU-145
  GI50: > 100 µM (inactive)
MCF7
  GI50: > 100 µM (inactive)
A498
  GI50: > 100 µM (inactive)
HT-29
  GI50: > 100 µM (inactive)
OVCAR-5
  GI50: > 100 µM (inactive)
CAKI-1
  GI50: > 100 µM (inactive)
HCT-116
  GI50: > 100 µM (inactive)
HOP-92
  GI50: > 100 µM (inactive)
SK-MEL-28
  GI50: > 100 µM (inactive)
MDA-MB-231
  GI50: > 100 µM (inactive)
SK-OV-3
  GI50: > 100 µM (inactive)
MOLT-4
  GI50: > 100 µM (inactive)
BT-549
  GI50: > 100 µM (inactive)
LOX IMVI
  GI50: > 100 µM (inactive)
M14
  GI50: > 100 µM (inactive)
ACHN
  GI50: > 100 µM (inactive)
NCI/ADR-RES
  GI50: > 100 µM (inactive)
SF-295
  GI50: > 100 µM (inactive)
NCI-H23
  GI50: > 100 µM (inactive)
PC-3
  GI50: > 100 µM (inactive)
UACC-62
  GI50: > 100 µM (inactive)
OVCAR-3
  GI50: > 100 µM (inactive)
UO-31
  GI50: > 100 µM (inactive)
SR
  GI50: > 100 µM (inactive)
NCI-H226
  GI50: > 100 µM (inactive)
K562
  GI50: > 100 µM (inactive)
MDA-N
  GI50: > 100 µM (inactive)
SW-620
  GI50: > 100 µM (inactive)
IGROV-1
  GI50: > 100 µM (inactive)
U-251
  GI50: > 100 µM (inactive)
A549
  GI50: > 100 µM (inactive)
MDA-MB-435
  GI50: > 100 µM (inactive)
NCI-H460
  GI50: > 100 µM (inactive)
OVCAR-4
  GI50: > 100 µM (inactive)
HCC 2998
  GI50: > 100 µM (inactive)

## O=c1c2c3c(sc2nc2n1N=C(c1ccc(Br)cc1)CS2)CCCC3
UACC-257
  GI50: > 100 µM (inactive)
SNB-19
  GI50: > 100 µM (inactive)
SN12C
  GI50: > 100 µM (inactive)
T47D
  GI50: > 100 µM (inactive)
SF-539
  GI50: > 100 µM (inactive)
HOP-62
  GI50: > 100 µM (inactive)
EKVX
  GI50: > 100 µM (inactive)
SNB-75
  GI50: > 100 µM (inactive)
HCT-15
  GI50: > 100 µM
786-0
  GI50: > 100 µM (inactive)
OVCAR-8
  GI50: > 100 µM (inactive)
Malme-3M
  GI50: > 100 µM (inactive)
KM12
  GI50: > 100 µM (inactive)
DU-145
  GI50: > 100 µM (inactive)
MCF7
  GI50: > 100 µM (inactive)
RXF 393
  GI50: > 100 µM (inactive)
A498
  GI50: > 100 µM (inactive)
HT-29
  GI50: > 100 µM (inactive)
OVCAR-5
  GI50: > 100 µM (inactive)
TK-10
  GI50: > 100 µM (inactive)
CAKI-1
  GI50: > 100 µM (inactive)
HCT-116
  GI50: > 100 µM (inactive)
HOP-92
  GI50: > 100 µM (inactive)
SK-MEL-28
  GI50: > 100 µM (inactive)
MDA-MB-231
  GI50: > 100 µM (inactive)
SK-OV-3
  GI50: > 100 µM (inactive)
MOLT-4
  GI50: > 100 µM (inactive)
COLO 205
  GI50: > 100 µM (inactive)
BT-549
  GI50: > 100 µM (inactive)
LOX IMVI
  GI50: > 100 µM (inactive)
M14
  GI50: > 100 µM (inactive)
ACHN
  GI50: > 100 µM (inactive)
HL-60
  GI50: > 100 µM (inactive)
NCI/ADR-RES
  GI50: > 100 µM (inactive)
SF-295
  GI50: > 100 µM (inactive)
NCI-H23
  GI50: > 100 µM (inactive)
PC-3
  GI50: > 100 µM (inactive)
UACC-62
  GI50: > 100 µM (inactive)
OVCAR-3
  GI50: > 100 µM (inactive)
UO-31
  GI50: > 100 µM (inactive)
SR
  GI50: > 100 µM (inactive)
NCI-H226
  GI50: > 100 µM (inactive)
CCRF-CEM
  GI50: > 100 µM (inactive)
K562
  GI50: > 100 µM (inactive)
MDA-N
  GI50: > 100 µM (inactive)
SW-620
  GI50: > 100 µM (inactive)
IGROV-1
  GI50: > 100 µM (inactive)
U-251
  GI50: > 100 µM (inactive)
A549
  GI50: > 100 µM (inactive)
MDA-MB-435
  GI50: > 100 µM (inactive)
NCI-H460
  GI50: > 100 µM (inactive)
OVCAR-4
  GI50: > 100 µM (inactive)
HCC 2998
  GI50: > 100 µM (inactive)
NCI-H522
  GI50: > 100 µM (inactive)
SF-268
  GI50: > 100 µM (inactive)
